{"source": "patent US20220142955A1", "about": "“METHODS OF TREATING ORGANIC ACIDEMIAS” (HemoShear Therapeutics, Inc., priority 2019, published 2022)", "key": {"[1]": {"test_system": "primary hepatocytes of methylmalonic acidemia patients", "assay": "Propionyl-CoA and methylmalonyl-CoA from various sources in MMA primary hepatocytes (Examples 4, 5)", "assay_type": "cell-based, human", "conditions": "Homo sapiens, Hepatocyte", "method": "Primary hepatocytes isolated from livers of methylmalonic acidemia patients are treated with increasing doses of compound 1 (0, 1, 3, 10, 30, 100, 300, 1000 μM) for 30 minutes. […] At the end of the challenge period, media is removed and the cells are lysed with 70% MCCN and 0.1% TFA containing 100 μM of ethymalonyl-CoA as an internal standard and harvested. Cell lysates are processed for HTMS/MS analysis.\nPrimary hepatocytes isolated from livers of methylmalonic acidemia patients are treated with increasing doses of compound 5 (0, 0.1, 0.3, 1, 3, 10, 30, 100 μM) for 30 min. […] At the end of the challenge period, media is removed and the cells are lysed with 70% MeCN and 0.1% TFA containing 100 μM of ethymalonyl-CoA as an internal standard and harvested. Cell lysates are processed for HTMS/MS analysis."}, "[2]": {"test_system": "MMA primary hepatocytes", "assay": "Static cell culture, low/high propiogenic media, MMA primary hepatocytes", "assay_type": "cell-based, human", "conditions": "MMA pHeps; for EC50 / EC90: Homo sapiens, Hepatocyte", "method": "Unlike the HemoShear Technology, this assay is carried out without constant perfusion, utilizing cell culture media that was customized to mimic plasma levels of propiogenic sources (amino acids and ketoacids) in PA and MMA patients during periods of relative metabolic stability (low propiogenic media) and acute metabolic crisis (high propiogenic media). PA and MMA pHeps, in static cell culture, were treated with Compound 5 (concentrations ranging from 0.1 μM to 100 μM) for 30 minutes in low propiogenic media, followed by either a continuation of low propiogenic media or a switch to the high propiogenic media for 1 hour. The media used during the 1-hour incubation contained propiogenic SIL amino acids and ketoacids which are metabolized into labeled P-CoA and M-CoA in the cells. The SIL amino acids and ketoacids were a mix of ^13C and MeD8 labelling, but their catabolism produced a SIL P-CoA (denoted as ^13C-P-CoA for simplicity) with the same mass, independent of the type of SIL (also true for ^13C-M-CoA)."}, "[3]": {"assay": "clinical", "set-up": "species or system human", "conditions": "in vivo; for AUC / Cmax: human", "method": "In some embodiments, the method entails administering 2,2-dimethylbutyric acid, or a CoA ester or carnitine ester thereof, or a pharmaceutically acceptable salt, ester, or solvate thereof, at a concentration ranging from about, including about […] to 50 mg/kg."}, "[4]": {"test_system": "MMA primary hepatocytes", "assay": "HemoShear Technology, MMA primary hepatocytes (Examples 10, 11)", "assay_type": "cell-based, human", "conditions": "Homo sapiens, Hepatocyte"}, "[5]": {"conditions": "high propiogenic, static culture"}, "[6]": {"conditions": "low propiogenic, static culture"}}, "note": "Where two headings read alike, the source gives them in different places."}
{"smiles": "CCC(C)(C)C(=O)O", "note": "[Compound 5, 2,2-dimethybutanoic acid]", "values": [{"measurement": "EC50", "setting": "[1]; 100 μM 13C-heptanoate, read-out: concentration of methylmalonyl-CoA EC50", "result": 0.02, "unit": "µM"}, {"measurement": "EC50", "setting": "[1]; 100 μM 13C-heptanoate, read-out: concentration of propionyl-CoA EC50", "result": 3.84, "unit": "µM"}, {"measurement": "EC50", "setting": "[1]; 1 mM 13C-KIVA, read-out: concentration of methylmalonyl-CoA EC50", "result": 1.17, "unit": "µM"}, {"measurement": "EC50", "setting": "[1]; 1 mM 13C-KIVA, read-out: concentration of propionyl-CoA EC50", "result": 0.93, "unit": "µM"}, {"measurement": "EC50", "setting": "[1]; 3 mM 13C-ILE, read-out: concentration of methylmalonyl-CoA EC50", "result": 1.38, "unit": "µM"}, {"measurement": "EC50", "setting": "[1]; 3 mM 13C-ILE, read-out: concentration of propionyl-CoA EC50", "result": 2.04, "unit": "µM"}, {"measurement": "EC50", "setting": "[2]; high propiogenic media, static, read-out: 12C-Methylmalonyl-CoA (13C-M-CoA) EC50", "result": "2.7 ± 1.6", "unit": "µM"}, {"measurement": "EC90", "setting": "[2]; high propiogenic media, static, read-out: 12C-Methylmalonyl-CoA (13C-M-CoA) EC90", "result": "21.2 ± 2", "unit": "µM"}, {"measurement": "EC50", "setting": "[2]; high propiogenic media, static, read-out: 13C-Methymalonic acid EC50", "result": "1.1 ± 0.9", "unit": "µM"}, {"measurement": "EC90", "setting": "[2]; high propiogenic media, static, read-out: 13C-Methymalonic acid EC90", "result": "4.6 ± 3", "unit": "µM"}, {"measurement": "EC50", "setting": "[2]; high propiogenic media, static, read-out: 13C-Propionyl-CoA (13C-P-CoA) EC50", "result": "1.6 ± 0.8", "unit": "µM"}, {"measurement": "EC90", "setting": "[2]; high propiogenic media, static, read-out: 13C-Propionyl-CoA (13C-P-CoA) EC90", "result": "48.2 ± 47.5", "unit": "µM"}, {"measurement": "EC50", "setting": "[2]; high propiogenic, static culture, read-out: 12C-Acetyl-CoA EC50", "result": "1.4 ± 1.4", "unit": "µM"}, {"measurement": "EC90", "setting": "[2]; high propiogenic, static culture, read-out: 12C-Acetyl-CoA EC90", "result": "6.4 ± 7.1", "unit": "µM"}, {"measurement": "EC50", "setting": "[2]; high propiogenic, static culture, read-out: CoASH EC50", "result": "13.1 ± 14.8", "unit": "µM"}, {"measurement": "EC90", "setting": "[2]; high propiogenic, static culture, read-out: CoASH EC90", "result": "65.6 ± 81.2", "unit": "µM"}, {"measurement": "EC50", "setting": "[2]; high propiogenic, static culture, read-out: Compound 5-CoA (formation) EC50", "result": "5.4 ± 2.8", "unit": "µM"}, {"measurement": "EC90", "setting": "[2]; high propiogenic, static culture, read-out: Compound 5-CoA (formation) EC90", "result": "80.1 ± 57", "unit": "µM"}, {"measurement": "EC50", "setting": "[2]; low propiogenic media, static, read-out: 12C-Methylmalonyl-CoA (13C-M-CoA) EC50", "result": "2.9 ± 1.6", "unit": "µM"}, {"measurement": "EC90", "setting": "[2]; low propiogenic media, static, read-out: 12C-Methylmalonyl-CoA (13C-M-CoA) EC90", "result": "30.9 ± 16.2", "unit": "µM"}, {"measurement": "EC50", "setting": "[2]; low propiogenic media, static, read-out: 13C-Methymalonic acid EC50", "result": "1.2 ± 1.3", "unit": "µM"}, {"measurement": "EC90", "setting": "[2]; low propiogenic media, static, read-out: 13C-Methymalonic acid EC90", "result": "5.2 ± 3.3", "unit": "µM"}, {"measurement": "EC50", "setting": "[2]; low propiogenic media, static, read-out: 13C-Propionyl-CoA (13C-P-CoA) EC50", "result": "1.3 ± 0.6", "unit": "µM"}, {"measurement": "EC90", "setting": "[2]; low propiogenic media, static, read-out: 13C-Propionyl-CoA (13C-P-CoA) EC90", "result": "15.7 ± 18", "unit": "µM"}, {"measurement": "EC50", "setting": "[2]; low propiogenic, static culture, read-out: 12C-Acetyl-CoA EC50", "result": "2.5 ± 2.6", "unit": "µM"}, {"measurement": "EC90", "setting": "[2]; low propiogenic, static culture, read-out: 12C-Acetyl-CoA EC90", "result": "28.4 ± 52", "unit": "µM"}, {"measurement": "EC50", "setting": "[2]; low propiogenic, static culture, read-out: CoASH EC50", "result": "2.3 ± 1.6", "unit": "µM"}, {"measurement": "EC90", "setting": "[2]; low propiogenic, static culture, read-out: CoASH EC90", "result": "14.2 ± 13.5", "unit": "µM"}, {"measurement": "EC50", "setting": "[2]; low propiogenic, static culture, read-out: Compound 5-CoA (formation) EC50", "result": "2 ± 0.7", "unit": "µM"}, {"measurement": "EC90", "setting": "[2]; low propiogenic, static culture, read-out: Compound 5-CoA (formation) EC90", "result": "18 ± 15.7", "unit": "µM"}, {"measurement": "12C-Methylmalonyl-CoA (13C-M-CoA) % change at 30 μM", "setting": "[2]; high propiogenic media, static", "result": "−73±5.8", "unit": "%"}, {"measurement": "13C-Methymalonic acid % change at 30 μM", "setting": "[2]; high propiogenic media, static", "result": "−91 ± 4", "unit": "%"}, {"measurement": "13C-Propionyl-CoA (13C-P-CoA) % change at 30 μM", "setting": "[2]; high propiogenic media, static", "result": "−75.9±7.3", "unit": "%"}, {"measurement": "12C-Acetyl-CoA Percent change (30 μM)", "setting": "[2]; [5]", "result": "−14.6 ± 12.6", "unit": "%"}, {"measurement": "CoASH Percent change (30 μM)", "setting": "[2]; [5]", "result": "−28.7 ± 7.3", "unit": "%"}, {"measurement": "12C-Methylmalonyl-CoA (13C-M-CoA) % change at 30 μM", "setting": "[2]; low propiogenic media, static", "result": "−76.5±13.2", "unit": "%"}, {"measurement": "13C-Methymalonic acid % change at 30 μM", "setting": "[2]; low propiogenic media, static", "result": "−83.2 ± 5", "unit": "%"}, {"measurement": "13C-Propionyl-CoA (13C-P-CoA) % change at 30 μM", "setting": "[2]; low propiogenic media, static", "result": "−77.6±9.8", "unit": "%"}, {"measurement": "12C-Acetyl-CoA Percent change (30 μM)", "setting": "[2]; [6]", "result": "−35.5 ± 18.1", "unit": "%"}, {"measurement": "CoASH Percent change (30 μM)", "setting": "[2]; [6]", "result": "−47.7 ± 13.4", "unit": "%"}, {"measurement": "AUC", "setting": "[3]; 30 mg/kg", "result": 2180, "unit": "µg·h/mL"}, {"measurement": "Cmax", "setting": "[3]; 30 mg/kg", "result": 156, "unit": "µg/mL"}, {"measurement": "AUC", "setting": "[3]; 40 mg/kg", "result": 2620, "unit": "µg·h/mL"}, {"measurement": "Cmax", "setting": "[3]; 40 mg/kg", "result": 203, "unit": "µg/mL"}, {"measurement": "AUC", "setting": "[3]; 50 mg/kg", "result": 3200, "unit": "µg·h/mL"}, {"measurement": "Cmax", "setting": "[3]; 50 mg/kg", "result": 256, "unit": "µg/mL"}, {"measurement": "Blood plasma concentrations following administration (dose dependence)", "setting": "[3]", "result": "dose proportional"}, {"measurement": "EC50", "setting": "[4]; MMA donor 1, representative data (FIG. 7A), read-out: P-CoA reduction EC50", "result": 3.9, "unit": "µM"}, {"measurement": "EC50", "setting": "[4]; MMA donor 1, representative data (FIG. 7B), read-out: M-CoA reduction EC50", "result": 3.25, "unit": "µM"}]}
